Experimental findings from patent publication US12370180B2, “P38 map kinase inhibitors for treating Friedreich's ataxia” (THE TRUSTEES OF THE UNIVERSITY OF PENNYSLVANIA, priority 2015, dated 2025) are described below.

“Also recorded” adds a separate entry of the source.

Holding throughout (format): cell-based, human
For series [1], the system named is primary FA fibroblasts. The series is described as follows: Growth of primary FA fibroblasts in beta-hydroxybutyrate (BHB) based mitochondrial stress medium. As to conditions: for reversal of the slow-growth phenotype (growth defect) of primary FA fibroblasts: beta-hydroxybutyrate-based media. How it is done:
The data shown are the means of triplicate samples+/−one SD. ***p<0.005. (C) Survival of normal control fibroblasts (GM8402) and FA fibroblasts (GM4078) in DMEM plus BHB after 12 days in culture. ***p<0.005. […] Cells were seeded at 80,000 cells per 100 mm dish and were kept sub-confluent. The data shown are the means of triplicate samples+/−one SD. ***p<0.005.
FA 3665B cells were infected with gFA2 (squares), gFA11 (diamonds) or a random clone (C3) (triangles). Cells were then sorted and GFP-positive cells were grown in DMEM plus BHB 5 mM (FIG. 4A) or in DMEM plus 5 mM glucose (FIG. 4B) ***=p […].
FA is caused by intronic trinucleotide repeat expansions that decrease expression of frataxin, a protein involved in mitochondrial iron-sulfur-cluster biogenesis. Clones were selected that reverse the slow-growth phenotype of primary FA fibroblasts in media with beta-hydroxybutyrate, a carbon source that particularly stresses cells with mitochondrial dysfunction (FIGS. 1 and 3). Among several clones identified, two clones have been tested and confirmed (FIG. 4): “Clone 2” (also referred to as gFA2) and “Clone 11” (also referred to as gFA11). The DNA coding strand for the shRNA sequences of those two […] (gFA2 and gFA11) are provided below, with the loop-encoding sequences in brackets. The shRNAs themselves are RNA versions of these sequences, with T changed to U.
These experiments have been repeated several times, over 4 days, 7 days, and 10 days, with the same results. Therefore, random shRNA screening can be combined with bioinformatic pattern matching to identify conventional chemical-compound therapeutic candidates, and potential therapeutic target proteins.

Series [2] has as its system cytokine secretion. As to the kind of experiment: Cytokine secretion into media of FA cells, measured by ELISA. As to conditions: media of FA cells expressing clone vs gFA11-Mut1. From the text: FIGS. 9A and 9B show the effect of gFA11 and gFA11-Mut1 shRNA sequences on the secretion of cytokines as measured by ELISA. […] These secretion patterns matched the expression changes seen on microarray analysis of mRNAs of the same cytokines.
(§1) Of relevance, it has been shown that silencing of the FA disease gene induces a senescence phenotype. […] Finally, gene-expression analyses of cells expressing Clone 11 also indicated an up-regulation of genes involved in DNA repair.
A general note: An ELISA detects its analyte on a solid surface through an enzyme-linked reagent.

The subject of series [3] is GM3816 cells. The series is described as follows: Sensitivity of FA cells to ionizing (gamma) radiation. As to conditions: 0.6 Gy irradiation.
Text: as §1

Series [4] has as its system frataxin. As to the kind of experiment: Frataxin expression in primary FA fibroblasts. Particulars: vector-expressed shRNA or 10 nM transfected siRNA, BHB medium. The procedure:
Frataxin expression in GM3816 cells infected with gFA2 vs. a random clone (C3) (FIG. 5A) and in GM3665B cells transfected with 10 nM gFA2 siRNA or a random clone (C3) (FIG. 5B). Cells were transfected every 3-4 days for two weeks and kept in BHB medium after the first transfection. ***=p value<0.005
FIG. 6: Hit-optimization of clone gFA2. A sub-library of ˜3000 sequences was constructed, each with a limited number of random mutations compared to gFA2. This sub-library was screened as described previously and two gFA2-variant clones, gFA2.8 and gFA2.10, were identified. […] (Cells were transfected every two days for one week and kept in DMEM plus 5 mM BHB after the first transfection. ***=p value<0.005). gFA2.8 has 5 mutations compared to gFA2; as a result, there are 5 mismatched bases in the hairpin structure.

Turning to `Cc1ccc(-n2nc(C(C)(C)C)cc2NC(=O)NCc2cc(F)ccc2Oc2ccc3c(cnn3CCO)c2)cc1` [ARRY-614, pexmetinib], the “reversal of the slow-growth phenotype (growth defect) of primary FA fibroblasts” value (shortened to “reversal of the slow-growth phenotype”) in series [1] is “reversal of the growth defect”.
`Cc1ccc(-n2nc(C(C)(C)C)cc2NC(=O)Nc2ccc(OCCN3CCOCC3)c3ccccc23)cc1` [BIRB-796, doramapimod]: the “reversal of the slow-growth phenotype” value in series [1] is “recapitulate the phenotype induced by Clone 11; also recorded: reverses the growth defect”.
For `Cc1c(F)cc(C(=O)NC2CC2)cc1-c1ccc(C(=O)NCC(C)(C)C)cn1` [GW-856553, losmapimod], the “reversal of the slow-growth phenotype” value in series [1] is listed as “reversal of the growth defect”.
For the molecule `CNC(=O)c1ccc(C)c(-n2c(C)cc(OCc3ccc(F)cc3F)c(Br)c2=O)c1` [PH-797804], the “reversal of the slow-growth phenotype” value in series [1] is “reversal of the growth defect”.
In the case of `Oc1ccc(-c2nc(-c3ccncc3)c(-c3ccc(F)cc3)[nH]2)cc1` [SB-202190], the “reversal of the slow-growth phenotype” value in series [1] is “recapitulate the phenotype induced by Clone 11; also recorded: reversal of the growth defect”.
As to `C[S+]([O-])c1ccc(-c2nc(-c3ccncc3)c(-c3ccc(F)cc3)[nH]2)cc1` (centres unmarked) [SB-203580], the “reversal of the slow-growth phenotype” value in series [1] was “recapitulates the phenotype induced by Clone 11; also recorded: reverses the growth defect”; in series [1] (listed as SB203580), “increase the growth of FA cells in a dose-dependent manner”.
In the case of `NC(=O)c1ccc(N(C(N)=O)c2c(F)cccc2F)nc1-c1ccc(F)cc1F` [VX-702], the increased growth in series [1] (at 500 nM, p=0.02) is reported as 1.2 fold. For the same molecule, the “reversal of the slow-growth phenotype” value in series [1] is recorded as “recapitulate the phenotype induced by Clone 11; also recorded: reversal of the growth defect”.
With `O=c1ncn2nc(Sc3ccc(F)cc3F)ccc2c1-c1c(Cl)cccc1Cl` [VX-745], the “reversal of the slow-growth phenotype” value in series [1] is reported as “reversal of the growth defect”.
Turning to “gFA11-Mut1: version of Clone 11 with a point mutation in the seed sequence, SEQ ID No: 5 and 6 (chain 1 AACACAAUGGAAGAGUGCUGGGUDGDG; chain 2 UGUUGUGUUACCUUCUCACGACCCACC; listed as RNA, chemistry not fully specified; one strand is listed 3' to 5')”, the “reversal of the slow-growth phenotype” value in series [1] was “diminished; also recorded: the growth-enhancement phenotype of gFA11 is affected”.
With “gFA11: hit shRNA from random library, SEQ ID No: 2; siRNA version SEQ ID No: 3 and 4 (chain 1 AACAGAAUGGAAGAGUGCUGGGUDGDG; chain 2 UGUUGUCUUACCUUCUCACGACCCACC; listed as RNA, chemistry not fully specified; one strand is listed 3' to 5')”, in series [2] (p<0.001), the GM-CSF secretion entry is “decreases” and the VEGF secretion entry is reported as “decreases”. Further, the “IL8 (IL-8) secretion” value in series [2] (p=0.001) is “decreases”. Besides, the GRO secretion result in series [2] (p=0.003) was “decreases”. Besides, in series [2] (p=0.005), the MCP-1 secretion result was “decreases”. In addition, in series [2] (p=0.01), the “IL1-beta (IL-1-beta) secretion” value is on record as “decreases” and the IP-10 secretion result is “decreases”. In addition, in series [2] (p=0.04), the RANTES secretion result is given as “decreases”. In addition, in series [2] (p=0.09), the “IL6 (IL-6) secretion” value is reported as “decreases”. In addition, in series [3], the “cell susceptibility to gamma irradiation” value is recorded as “are able to recover”. Moreover, in series [3] (listed as Clone 11), the “cell susceptibility to gamma irradiation” value is listed as “protective”. The “reversal of the slow-growth phenotype” value in series [1] was “increase the growth of FA fibroblasts; also recorded: growth-enhancing effect; also recorded: recapitulate the phenotype induced by the corresponding shRNA sequence”. Also, the “reversal of the slow-growth phenotype” value in series [1] (listed as Clone 11) is “more effective than Clone 2”. For the same molecule, the frataxin expression entry in series [4] is on record as “does not increase frataxin expression”.
ralimetinib dimesylate [LY-2228820] had an increased growth in series [1] (at 50 nM, p<0.005) of 1.6 fold. In addition, the “reversal of the slow-growth phenotype” value in series [1] was “recapitulate the phenotype induced by Clone 11; also recorded: reversal of the growth defect”.

B1: gFA2: hit shRNA (also used as siRNA) from random shRNA library, SEQ ID No: 1 (nucleic acid)
chain: GCCAATCGGGGAGGTCGGCGCATATCATGCTAAACCATGATATGCGCCGACCTCCCCGATTGGC
With B1, in series [1], the “reversal of the slow-growth phenotype” value is recorded as “increase the growth of FA fibroblasts”. In addition, the frataxin expression result in series [4] is given as “increases frataxin expression”; in series [4] (listed as Clone 2), “partially reverses the decreased expression of frataxin”.

B2: gFA2.10: gFA2-variant clone, SEQ ID No: 10 (nucleic acid)
chain: GCCCCTCGGGCAGGTCGGCGAATATCATGCTAAACTATGATATGCGCCGACCTTCCCGATTGGC
modifications: expressed or natural sequence
B2: the frataxin expression entry in series [4] is recorded as “more efficacious”.

B3: gFA2.8: gFA2-variant clone with 5 mutations compared to gFA2, SEQ ID No: 9 (nucleic acid)
chain: GCCCCTCGGGCAGGTCGGCGAATATCATGCTAAACTATGATATGCGCCGACCTCCCCGATTGGC
modifications: expressed or natural sequence
As to B3, the frataxin expression entry in series [4] is reported as “more efficacious”.
